This assay has as its target T1, Human A2a Adenosine Receptor (Homo sapiens, UniProt P29274).
T1 construct: purchased Receptor Biology, Inc., Beltsville, Md; RB-HA2a
Put plainly: Human Adenosine A2a Receptor Competition Binding Assay ([3H]-SCH 58261 displacement). The method, then: Human Adenosine A2a Receptor Competition Binding Assay Protocol
A2a: Human A2a Adenosine Receptor membranes, Catalog #RB-HA2a, Receptor Biology, Inc., Beltsville, Md. Dilute to 17 μg/100 μl in membrane dilution buffer (see below).
Membrane dilution buffer: Dulbecco's Phosphate Buffered Saline (Gibco/BRL)+ 10 mM MgCl2.
Compound Dilution Buffer: Dulbecco's Phosphate Buffered Saline (Gibco/BRL)+10 mM MgCl2 supplemented with 1.6 mg/ml methyl cellulose and 16% DMSO. Prepared fresh daily.
A2a: [3H]-SCH 58261 [7-(2-phenylethyl)-5-amino-2-(2-furyl)-pyrazolo-[4,3-e]-1,2,4-triazolo[1,5-c]pyrimidine], custom synthesis, Amersham Pharmacia Biotech, Piscataway, N.J. Stock is prepared at 1 nM in membrane dilution buffer. Final assay concentration is 0.5 nM. SCH-58261 is discussed in Zocchi et al., J Pharmacol Exp Ther. 276(2):398-404 (1996).
A2a: To determine non-specific binding, add 100 nM CGS 15923 (RBI, Natick, Mass.). Working stock is prepared at 400 nM in compound dilution buffer.
Prepare 1 mM stock solutions of compounds in 100% DMSO. Dilute in compound dilution buffer. Test at 10 concentrations ranging from 3 μM to 30 μM. Prepare working solutions at 4× final concentration in compound dilution buffer.
Perform assays in deep well 96 well plates. Total assay volume is 200 μl. Add 50 μl compound dilution buffer (total ligand binding) or 50 μl […] working solution (A2a non-specific binding) or 50 μl of drug working solution.

[1] abbreviates: Table I, human A2a membranes, [3H]-SCH 58261 0.5 nM, Cheng-Prusoff, read-out: Activity (Ki).
Where [2] appears, read: Table II, human A2a membranes, [3H]-SCH 58261 0.5 nM, Cheng-Prusoff, read-out: Activity (Ki in nM).
Where [3] appears, read: assay of Example 25, read-out: Ki value for the adenosine A2a receptor.

The text below walks through data of patent US8435994B2, “Substituted [1,2,4]triazolo[4,3-alpha]quinoxalines as adenosine A2a receptor antagonists” (Merck Sharp & Dohme Corp., priority 2009, dated 2013).

Each structure is given as a SMILES string. Where two headings read alike, the source gives them in different places.

What is called Ki is a dissociation constant, usually derived from enzyme kinetics or from competition with a known ligand.

T1 sequence (P29274 whole entry): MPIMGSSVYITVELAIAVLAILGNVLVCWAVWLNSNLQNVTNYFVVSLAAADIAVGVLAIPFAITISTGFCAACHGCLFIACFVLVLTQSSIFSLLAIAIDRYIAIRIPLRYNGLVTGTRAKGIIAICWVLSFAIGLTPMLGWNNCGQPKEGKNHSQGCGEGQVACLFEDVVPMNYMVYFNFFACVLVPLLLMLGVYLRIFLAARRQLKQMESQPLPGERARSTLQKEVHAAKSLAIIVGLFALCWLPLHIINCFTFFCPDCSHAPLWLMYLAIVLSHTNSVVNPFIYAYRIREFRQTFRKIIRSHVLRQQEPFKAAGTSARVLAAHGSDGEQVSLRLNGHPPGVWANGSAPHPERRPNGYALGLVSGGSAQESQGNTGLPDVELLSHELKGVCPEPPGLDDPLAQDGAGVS

Take `Nc1nc2cc(F)c(F)cc2n2c(=O)n(Cc3c(F)cccc3F)nc12` [Compound 1]: the Ki under setting [1] was determined as 0.4 nM.
Same read-out and setting: the value for `Nc1nc2ccccc2n2c(=O)n(Cc3ccccc3)nc12` [Compound 2] was 0.7 nM; that for `Cc1cccc2c1nc(N)c1nn(Cc3ccccc3)c(=O)n12` [Compound 3] was 0.6 nM.
In the case of `Nc1ccccc1Cn1nc2c(N)nc3ccccc3n2c1=O` [Compound 5], the inhibitory constant (Ki) under setting [1] came out at 0.7 nM.
Take `Nc1nc2ccc(F)cc2n2c(=O)n(Cc3ccccc3)nc12` [Compound 6]: under setting [1], the Ki is 0.9 nM.
In the case of `Nc1nc2ccc(F)cc2n2c(=O)n(Cc3c(F)cccc3F)nc12` [Compound 7], the Ki under setting [1] came out at 0.7 nM.
Turning to `Nc1nc2ccccc2n2c(=O)n(Cc3cccc(F)c3F)nc12` [Compound 8], the Ki under setting [1] amounted to 1 nM.
`Nc1nc2ccccc2n2c(=O)n(Cc3c(F)cccc3F)nc12` [Compound 9]: the Ki under setting [1] was found to be 1 nM.
Consider `Nc1nc2ccc(F)cc2n2c(=O)n(Cc3ccc(F)cc3)nc12` [Compound 10], for which the Ki under setting [1] was 1 nM.
Take `Nc1nc2ccccc2n2c(=O)n(Cc3ccccc3CO)nc12` [Compound 11]: under setting [1], the Ki was 1.2 nM.
On the same count and under the same terms, the value for `Nc1nc2ccc(F)cc2n2c(=O)n(Cc3c(F)cc(F)cc3F)nc12` [Compound 12] was 1 nM; that for `Nc1nc2ccccc2n2c(=O)n(Cc3c(F)cc(F)cc3F)nc12` [Compound 13] was 1.4 nM.
Regarding `N#Cc1ccccc1Cn1nc2c(N)nc3ccccc3n2c1=O` [Compound 14], the Ki under setting [1] was 1.2 nM.
For the molecule `Nc1nc2cc([N+](=O)[O-])ccc2n2c(=O)n(Cc3ccccc3)nc12` [Compound 15], the inhibition constant (Ki) under setting [1] was determined as 1.4 nM.
Regarding `Nc1nc2cc(Cl)c(Cl)cc2n2c(=O)n(Cc3ccccc3)nc12` [Compound 16], the inhibition constant (Ki) under setting [1] worked out at 1.4 nM.
Regarding `Nc1nc2cc(F)c(F)cc2n2c(=O)n(Cc3ccccc3)nc12` [Compound 17], the Ki under setting [1] amounted to 1.4 nM.
In the case of `Nc1nc2ccccc2n2c(=O)n(Cc3ccc(F)cc3)nc12` [Compound 18], the Ki under setting [1] was 1.9 nM.
Consider `COC(=O)c1ccc2c(c1)nc(N)c1nn(Cc3ccccc3)c(=O)n12` [Compound 19], for which the inhibition constant (Ki) under setting [1] was 1.7 nM.
Take `Nc1nc2cc(C(F)(F)F)ccc2n2c(=O)n(Cc3c(F)cccc3F)nc12` [Compound 20]: under setting [1], the inhibitory constant (Ki) amounted to 1.8 nM.
Same read-out and setting: as for `Nc1nc2ccccc2n2c(=O)n(Cc3ccccc3C(F)(F)F)nc12` [Compound 21], the figure is 1.8 nM; as for `Nc1nc2ccc(F)cc2n2c(=O)n(Cc3c(F)cccc3C(F)(F)F)nc12` [Compound 22], 2.2 nM; as for `CC(C)(O)c1ccccc1Cn1nc2c(N)nc3ccccc3n2c1=O` [Compound 23], 2 nM.
As to `Nc1nc2cc(F)c(F)cc2n2c(=O)n(Cc3c(F)cc(F)cc3F)nc12` [Compound 24], the Ki under setting [1] was determined as 2.8 nM.
Turning to `Nc1nc2cc(C=O)ccc2n2c(=O)n(Cc3ccccc3)nc12` [Compound 25], the inhibitory constant (Ki) under setting [1] is 2.6 nM.
In the case of `COC(=O)c1ccccc1Cn1nc2c(N)nc3ccccc3n2c1=O` [Compound 26], the inhibitory constant (Ki) under setting [1] is 1.9 nM.
Same read-out and setting: as for `Nc1nc2ccccc2n2c(=O)n(Cc3c(F)cccc3C(F)(F)F)nc12` [Compound 27], the figure is 2.5 nM; as for `Nc1nc2ccc(Cl)cc2n2c(=O)n(Cc3ccccc3)nc12` [Compound 28], 2.7 nM; as for `Nc1nc2ccccc2n2c(=O)n(Cc3ccccc3[N+](=O)[O-])nc12` [Compound 29], 3.2 nM.
As to `Nc1nc2ccccc2n2c(=O)n(Cc3c(Cl)cccc3Cl)nc12` [Compound 30], the Ki under setting [1] was 3.2 nM.
With `CC(=O)c1ccc2c(c1)nc(N)c1nn(Cc3ccccc3)c(=O)n12` [Compound 31], under setting [1], the Ki was 3 nM.
Still for that read-out and setting: as for `N#C/N=c1\n(Cc2ccccc2)nc2c(N)nc3ccccc3n12` [Compound 32], the figure is 4.7 nM; as for `Nc1ccc2c(c1)nc(N)c1nn(Cc3ccccc3)c(=O)n12` [Compound 33], 5.6 nM.
On to `N=c1n(Cc2ccccc2)nc2c(N)nc3ccccc3n12` [Compound 35], for which the inhibition constant (Ki) under setting [1] turned out to be 6 nM.
Consider `Cc1cccc2nc(N)c3nn(Cc4ccccc4)c(=O)n3c12` [Compound 36], for which the inhibition constant (Ki) under setting [1] came to 7.1 nM.
Regarding `Nc1nc2ccccc2n2c(=O)n(Cc3cc(F)cc(F)c3)nc12` [Compound 37], the Ki under setting [1] turned out to be 7.4 nM.
With `CC(=O)Nc1ccccc1Cn1nc2c(N)nc3ccccc3n2c1=O` [Compound 38], the inhibitory constant (Ki) under setting [1] came to 7.4 nM.
Regarding `CN(C)/C=N\c1ccccc1Cn1nc2c(N)nc3ccccc3n2c1=O` [Compound 39], the inhibition constant Ki under setting [1] came to 8.2 nM.
The same measure, in the same setting: as for `Nc1nc2cc(CO)ccc2n2c(=O)n(Cc3ccccc3)nc12` [Compound 40], the figure is 8.6 nM; as for `CS(=O)(=O)c1ccccc1Cn1nc2c(N)nc3ccccc3n2c1=O` [Compound 41], 8.3 nM; as for `Nc1nc2ccc(C(F)(F)F)cc2n2c(=O)n(Cc3c(F)cccc3F)nc12` [Compound 42], 10.2 nM.
Same read-out and setting: as for `COc1ccc2nc(N)c3nn(Cc4ccccc4)c(=O)n3c2c1` [Compound 43], the figure is 12.1 nM; as for `COc1cccc(OC)c1Cn1nc2c(N)nc3ccccc3n2c1=O` [Compound 44], 14 nM.
Turning to `Nc1nc2ccccc2n2c(=O)n(CCc3ccccc3)nc12` [Compound 45], the Ki under setting [1] is 29.2 nM.
Regarding `CCCCNc1nc2ccc(F)cc2n2c(=O)n(Cc3ccccc3)nc12` [Compound 46], the Ki under setting [1] is 28.9 nM.
`Nc1nc2ccccc2n2c(=O)n(CC3CC3)nc12` [Compound 47]: the inhibition constant Ki under setting [1] worked out at 32.3 nM.
`CN(C)C(=O)c1ccccc1Cn1nc2c(N)nc3ccccc3n2c1=O` [Compound 48]: the inhibitory constant (Ki) under setting [1] amounted to 28.9 nM.
On to `Nc1nc2cc(CO)ccc2n2c(=O)n(Cc3ccccc3F)nc12` [Compound 49], for which, under setting [1], the inhibition constant Ki is 38.4 nM.
Take `Nc1nc2cccnc2n2c(=O)n(Cc3ccccc3)nc12` [Compound 50]: under setting [1], the inhibition constant Ki was determined as 46.3 nM.
On the same count and under the same terms, as for `COc1ccc2nc(N)c3nn(Cc4ccccc4C(F)(F)F)c(=O)n3c2c1` [Compound 51], the figure is 51.5 nM; as for `CC(O)c1ccc2c(c1)nc(N)c1nn(Cc3ccccc3)c(=O)n12` (stereo not drawn) [Compound 52], 54.9 nM.
Turning to `Nc1nc2ccc(CO)cc2n2c(=O)n(Cc3ccccc3)nc12` [Compound 53], the Ki under setting [1] stood at 60 nM.
As for `Nc1nc2ccccc2n2c(=O)n(Cc3ccccc3C(=O)N3CCOCC3)nc12` [Compound 54], the Ki under setting [1] was 66.4 nM.
Same read-out and setting: the value for `COC(=O)c1ccc2nc(N)c3nn(Cc4ccccc4)c(=O)n3c2c1` [Compound 55] was 70.8 nM.
With `CC(c1ccccc1)n1nc2c(N)nc3ccccc3n2c1=O` (stereo not drawn) [Compound 56], the Ki under setting [1] was found to be 91.1 nM.
With `Nc1nc2ccccc2n2cc(Cc3ccccc3)nc12` [Compound 57], the Ki under setting [2] turned out to be 4.1 nM.
On to `Nc1nc2ccccc2n2cc(-c3ccccc3)nc12` [Compound 58], for which the Ki under setting [2] worked out at 57 nM.
As to `Nc1nc2ccccc2n2cc(C(=O)c3ccccc3)nc12` [Compound 59], the inhibitory constant (Ki) under setting [2] is 42 nM.
With `Nc1nc2ccccc2n2cc(C(O)c3ccccc3)nc12` (stereo not drawn) [Compound 60], under setting [2], the Ki worked out at 29 nM.
As for `Nc1nc2ccccc2n2nc(Cc3ccccc3)nc12` [Compound 61], the Ki under setting [3] came out at 0.7 nM.
As to `Nc1nc2ccccc2c2nc(Cc3ccccc3)cn12` [Compound 62], the inhibition constant (Ki) under setting [3] was determined as 0.7 nM.
